Assay results published in paper PMC3603449, “The affinity purification and characterization of ATP synthase complexes from mitochondria” (Open Biology, 2013).

Target: T1, bovine F1Fo-ATPase (F-ATP synthase), F1 catalytic site (Bos taurus, UniProt P00829+P19483)
T1 construct: gene ATP5F1B; native purification from heart mitochondria; with ATP synthase F(1) complex subunit gamma, mitochondrial; ATP synthase F(1) complex subunit delta, mitochondrial; ATP synthase F(1) complex subunit epsilon, mitochondrial; ATP synthase F(0) complex subunit C1, mitochondrial (subunit c); ATP synthase F(0) complex subunit a; ATP synthase subunit O, mitochondrial (OSCP); ATP synthase F(0) complex subunit B1, mitochondrial (subunit b); ATP synthase subunit d, mitochondrial; ATP synthase-coupling factor 6, mitochondrial (F6); ATP synthase protein 8 (A6L); ATP synthase subunit e, mitochondrial; ATP synthase subunit f, mitochondrial; ATP synthase subunit g, mitochondrial
Assay: ATP synthesis in proteoliposomes with bacteriorhodopsin, luciferin-luciferase
Type: biochemical
Conditions: turnover only; phosphate, pH 7.4, white light, I1-60GFP present

With Nc1ncnc2c1ncn2[C@@H]1O[C@H](COP(=O)(O)OP(=O)(O)O)[C@@H](O)[C@H]1O [ADP] the “ATP synthesis in proteoliposomes with bacteriorhodopsin, luciferin-luciferase” value was “On illumination with white light, ATP was synthesized in a linear manner”.
